Reference: the RepoRT retention time repository
Structures can show the parent of a compound that is named as a salt.

Test: RP, Thermo Scientific Hypersil GOLD, 1.9 µm, 40 °C, 0.4 mL/min; A: water + 0.1% formic acid, pH 3; B: acetonitrile + 0.1% formic acid, pH 3; gradient (min/%B) 0/0 1/0 11/100 13/100 14/0 16/0
Conditions: stereoisomer not certain

Row | Structure (SMILES) | LC retention time
1 | Nc1ncnc2c1ncn2C1OC(COP(=O)(O)OP(=O)(O)OC2OC(CO)C(O)C(O)C2O)C(O)C1O (centres undefined) [ADP-GLUCOSE] | 1.27 min
2 | NCCCCN=C(N)N [AGMATINE SULFATE] | 0.54 min
3 | NC(=O)c1ncn(C2OC(COP(=O)(O)O)C(O)C2O)c1N (centres undefined) [AICAR] | 0.76 min
4 | NC(=O)NC1NC(=O)NC1=O (centres undefined) [ALLANTOIN] | 0.67 min
5 | CC(C)(O)C(=O)O [ALPHA-HYDROXYISOBUTYRATE] | 1.62 min
6 | NC(CCCC(=O)O)C(=O)O (centres undefined) [AMINOADIPATE] | 0.67 min
7 | CC(CN)C(=O)O (centres undefined) [AMINOISOBUTANOATE] | 0.67 min
8 | Nc1ccccc1S(=O)(=O)O [ANILINE-2-SULFONATE] | 1.42 min
9 | Cn1cncc1CC(NC(=O)CCN)C(=O)O (centres undefined) [ANSERINE] | 0.57 min
10 | Nc1ccccc1C(=O)O [ANTHRANILATE] | 5.29 min
11 | CCCCCCCCCCCCCCCCCCCC(=O)O [ARACHIDATE] | 13.5 min
12 | O=C1OC(C(O)CO)C(O)=C1O (centres undefined) [ASCORBATE] | 0.78 min
13 | O=C(O)CCCCCCCC(=O)O [AZELATE] | 6.12 min
14 | CC(=O)OCC(=O)O [Acetoxyacetic acid] | 1.93 min
15 | Nc1ncnc2c1ncn2C1OC(CO)C(OP(=O)(O)O)C1O (centres undefined) [Adenosine 3'-monophosphate free acid] | 0.82 min
16 | Nc1ccc(C(=O)NCC(=O)O)cc1 [Aminohippuric acid] | 1.77 min
17 | NCc1ccccc1 [BENZYLAMINE] | 3.59 min
18 | NCCC(=O)O [BETA-ALANINE] | 0.62 min
19 | CC1=C(/C=C/C(C)=C/C=C/C(C)=C/C=C/C=C(C)/C=C/C=C(C)/C=C/C2=C(C)CCCC2(C)C)C(C)(C)CCC1 [BETA-CAROTENE] | 9.23 min
20 | O=P(O)(O)OC(CO)CO [BETA-GLYCEROPHOSPHATE] | 0.67 min
21 | NC(=O)c1ccc[n+](C2OC(COP(=O)(O)OP(=O)(O)OCC3OC(n4cnc5c(N)ncnc54)C(O)C3O)C(O)C2O)c1 (stereo not drawn) [BETA-NICOTINAMIDE ADENINE DINUCLEOTIDE] | 0.78 min
22 | C[N+](C)(C)CC(=O)[O-] [BETAINE] | 0.65 min

Row | Structure (SMILES) | LC retention time
23 | C=CC1=C(C)C(=Cc2[nH]c(Cc3[nH]c(C=C4NC(=O)C(C)=C4C=C)c(C)c3CCC(=O)O)c(CCC(=O)O)c2C)NC1=O [BILIRUBIN] | 12.6 min
24 | C=CC1=C(C)C(C=c2[nH]c(=Cc3[nH]c(C=C4NC(=O)C(C)=C4C=C)c(C)c3CCC(=O)O)c(CCC(=O)O)c2C)=NC1=O [BILIVERDIN] | 7.99 min
25 | O=C(O)CCCCC1SCC2NC(=O)NC21 (centres undefined) [BIOTIN] | 5.15 min
26 | CCCCC(CC)COC(=O)c1ccccc1C(=O)OCC(CC)CCCC (centres undefined) [BIS(2-ETHYLHEXYL)PHTHALATE] | 13 min
27 | C=C(C)C1CCC2(C(=O)O)CCC3(C)C(CCC4C5(C)CCC(O)C(C)(C)C5CCC43C)C12 (centres undefined) [Betulinic acid] | 11.2 min
28 | CCCCCCCCCCCCCCC=COCC(O)COP(=O)([O-])OCC[N+](C)(C)C (centres undefined) [C16_PlasmLPC] | 10.5 min
29 | CCCCCCCCCCCCCCCCCCOCC(O)COP(=O)([O-])OCC[N+](C)(C)C (centres undefined) [C18_LysoPAF] | 10.4 min
30 | NCCCCCN [CADAVERINE] | 0.55 min
31 | Cn1c(=O)c2c(ncn2C)n(C)c1=O [CAFFEINE] | 4.85 min
32 | NCCC(=O)NC(Cc1cnc[nH]1)C(=O)O (centres undefined) [CARNOSINE] | 0.59 min
33 | NCCOP(=O)(O)OP(=O)(O)OCC1OC(n2ccc(N)nc2=O)C(O)C1O (centres undefined) [CDP-ETHANOLAMINE] | 0.64 min
34 | CC(CCC(=O)O)C1CCC2C3C(O)CC4CC(O)CCC4(C)C3CCC12C (centres undefined) [CHENODEOXYCHOLATE] | 9.15 min
35 | CC(CCC(=O)O)C1CCC2C3C(O)CC4CC(O)CCC4(C)C3CC(O)C12C (centres undefined) [CHOLATE] | 8.17 min
36 | C[N+](C)(C)CCO [CHOLINE] | 0.62 min
37 | C[N+](C)(C)CCOP(=O)(O)OP(=O)([O-])OCC1OC(n2ccc(N)nc2=O)C(O)C1O (centres undefined) [CITICOLINE] | 0.64 min
38 | CC(O)(CC(=O)O)C(=O)O (centres undefined) [CITRAMALATE] | 1.23 min
39 | O=C(O)CC(O)(CC(=O)O)C(=O)O [CITRATE] | 0.9 min
40 | NC(=O)NCCCC(N)C(=O)O (centres undefined) [CITRULLINE] | 0.65 min
41 | CC12CCC(=O)C=C1CCC1C2CCC2(C)C1CCC2(O)C(=O)CO (centres undefined) [CORTEXOLONE] | 7.48 min
42 | CC12CCC(=O)C=C1CCC1C2C(O)CC2(C)C(C(=O)CO)CCC12 (centres undefined) [CORTICOSTERONE] | 7.47 min
43 | CC(=O)OCC(=O)C1(O)CCC2C3CCC4=CC(=O)CCC4(C)C3C(O)CC21C (centres undefined) [CORTISOL 21-ACETATE] | 7.67 min
44 | CC12CCC(=O)C=C1CCC1C2C(O)CC2(C)C1CCC2(O)C(=O)CO (centres undefined) [CORTISOL] | 6.73 min

Row | Structure (SMILES) | LC retention time
45 | CC12CCC(=O)C=C1CCC1C2C(=O)CC2(C)C1CCC2(O)C(=O)CO (centres undefined) [CORTISONE] | 6.81 min
46 | CN(CC(=O)O)C(=N)N [CREATINE] | 0.66 min
47 | CN1CC(=O)NC1=N [CREATININE] | 0.62 min
48 | Nc1nc2c(ncn2C2OC3COP(=O)(O)OC3C2O)c(=O)[nH]1 (centres undefined) [CYCLIC GMP] | 1.29 min
49 | NC(CS)C(=O)NCC(=O)O (centres undefined) [CYS-GLY] | 0.59 min
50 | NC(CCSCC(N)C(=O)O)C(=O)O (centres undefined) [CYSTATHIONINE] | 0.61 min
51 | NC(CS(=O)(=O)O)C(=O)O (centres undefined) [CYSTEATE] | 0.65 min
52 | NC(CSSCC(N)C(=O)O)C(=O)O (centres undefined) [CYSTINE] | 0.61 min
53 | Nc1ccn(C2OC(CO)C3OP(=O)(O)OC32)c(=O)n1 (centres undefined) [CYTIDINE 2'-3'-CYCLIC PHOSPHATE] | 0.7 min
54 | Nc1ccn(C2OC(COP(=O)(O)OP(=O)(O)O)C(O)C2O)c(=O)n1 (centres undefined) [CYTIDINE DIPHOSPHATE] | 1.2 min
55 | Nc1ccn(C2OC(CO)C(O)C2O)c(=O)n1 (centres undefined) [CYTIDINE] | 0.78 min
56 | Nc1ccnc(=O)[nH]1 [CYTOSINE] | 0.65 min
57 | CN1C(=O)CCC1c1cccnc1 (centres undefined) [Cotinine] | 0.83 min
58 | O=c1ccc2ccccc2o1 [Coumarin] | 6.42 min
59 | O=C[C@H](O)[C@H](O)CO [D-(-)-Erythrose] | 0.7 min
60 | O=CC(O)C1OC(=O)C(O)C1O [D-GLUCURONOLACTONE] | 0.71 min
61 | O=P(O)(O)OCC1OC(O)C(O)C1O [D-RIBOSE 5-PHOSPHATE] | 0.65 min
62 | Nc1ncnc2c1ncn2C1CC(O)C(COP(=O)(O)O)O1 (centres undefined) [DEOXYADENOSINE MONOPHOSPHATE] | 0.84 min
63 | Nc1ncnc2c1ncn2C1CC(O)C(CO)O1 (centres undefined) [DEOXYADENOSINE] | 1.09 min
64 | CCCCCCCCCC(=O)OCC(COP(=O)([O-])OCC[N+](C)(C)C)OC(=O)CCCCCCCCC (centres undefined) [DIDECANOYL-GLYCEROPHOSPHOCHOLINE] | 11.1 min

Now from value to compound:

Row | LC retention time | Structure (SMILES)
65 | 0.67 min | C[N+](C)(C)CCCC(=O)O [DEOXYCARNITINE]
66 | 9.25 min | CC(=O)OCC(=O)C1CCC2C3CCC4=CC(=O)CCC4(C)C3CCC12C (centres undefined) [DEOXYCORTICOSTERONE ACETATE]
67 | 0.74 min | Nc1ccn(C2CC(O)C(COP(=O)(O)O)O2)c(=O)n1 (centres undefined) [DEOXYCYTIDINE MONOPHOSPHATE]
68 | 1.13 min | Nc1ccn(C2CC(O)C(COP(=O)([O-])OP(=O)([O-])[O-])O2)c(=O)n1 (centres undefined) [DEOXYCYTIDINE-DIPHOSPHATE]
69 | 0.83 min | Nc1ccn(C2CC(O)C(CO)O2)c(=O)n1 (centres undefined) [DEOXYCYTIDINE]
70 | 1.77 min | Nc1nc2c(ncn2C2CC(O)C(CO)O2)c(=O)[nH]1 (centres undefined) [DEOXYGUANOSINE]
71 | 0.82 min | O=c1ccn(C2CC(O)C(COP(=O)(O)O)O2)c(=O)[nH]1 (centres undefined) [DEOXYURIDINE-MONOPHOSPHATE]
72 | 1.24 min | O=c1ccn(C2CC(O)C(CO)O2)c(=O)[nH]1 (centres undefined) [DEOXYURIDINE]
73 | 13.9 min | CC(C)=CCCC(C)C1CCC2C3CC=C4CC(O)CCC4(C)C3CCC12C (centres undefined) [DESMOSTEROL]
74 | 5.47 min | CC1NC(=O)NC1CCCCCC(=O)O (centres undefined) [DETHIOBIOTIN]
75 | 0.6 min | OCCNCCO [DIETHANOLAMINE]
76 | 4.54 min | Nc1nc2c(c(=O)[nH]1)N=C(CNc1ccc(C(=O)NC(CCC(=O)O)C(=O)O)cc1)CN2 (centres undefined) [DIHYDROFOLATE]
77 | 0.77 min | O=C1CC(C(=O)O)NC(=O)N1 (centres undefined) [DIHYDROOROTATE]
78 | 0.82 min | O=C1CCNC(=O)N1 [DIHYDROURACIL]
79 | 0.69 min | O=C(CO)COP(=O)(O)O [DIHYDROXYACETONE PHOSPHATE]
80 | 0.83 min | NCCc1ccc(O)c(O)c1 [DOPAMINE]
81 | 7.63 min | CCCCCCCCCC(=O)OC(CC(=O)[O-])C[N+](C)(C)C [Decanoyl-L-carnitine]
82 | 6.42 min | CC(=O)C1C(=O)C=C(C)OC1=O (centres undefined) [Dehydroacetic acid]
83 | 0.74 min | CNCC(O)c1ccc(O)c(O)c1 (centres undefined) [EPINEPHRINE]
84 | 13.5 min | CCCCCCCCC=CCCCCCCCCCCCC(=O)O [ERUCATE]
85 | 8.07 min | CC12CCC3c4ccc(O)cc4CCC3C1CCC2O (stereo not drawn) [ESTRADIOL-17ALPHA]
86 | 8.03 min | CCOC(=O)Cc1c[nH]c2ccccc12 [ETHYL 3-INDOLEACETATE]
87 | 3.77 min | CCC(C(=O)O)C(=O)O [ETHYLMALONATE]
88 | 5.67 min | COc1cc(C=CC(=O)O)ccc1O [FERULATE]
89 | 4.68 min | Nc1nc2ncc(CNc3ccc(C(=O)NC(CCC(=O)O)C(=O)O)cc3)nc2c(=O)[nH]1 (centres undefined) [FOLATE]
90 | 0.66 min | O=P(O)(O)OCC1OC(O)(CO)C(O)C1O (centres undefined) [FRUCTOSE 6-PHOSPHATE]
91 | 0.64 min | OCC1OC(O)C(O)C(O)C1O (centres undefined) [GALACTOSE]
92 | 0.64 min | O=C1OC(CO)C(O)C(O)C1O (centres undefined) [GLUCONOLACTONE]
93 | 0.62 min | NC(C(=O)O)C(O)C(O)C(O)CO (centres undefined) [GLUCOSAMINATE]
94 | 0.6 min | NC1C(O)OC(COP(=O)(O)O)C(O)C1O (centres undefined) [GLUCOSAMINE 6-PHOSPHATE]
